# Experimental data: ChEMBL document CHEMBL1129600, “Identification of retinoic acid receptor beta subtype specific agonists” (J Med Chem, 1996)
# How the values were obtained:
# [1] = target: T1, Retinoic acid receptor gamma (Homo sapiens, UniProt P13631); experiment: Inhibition of [3H]ATRA binding to baculovirus expressed Retinoic acid receptor RAR gamma
# T1 sequence (P13631 whole entry): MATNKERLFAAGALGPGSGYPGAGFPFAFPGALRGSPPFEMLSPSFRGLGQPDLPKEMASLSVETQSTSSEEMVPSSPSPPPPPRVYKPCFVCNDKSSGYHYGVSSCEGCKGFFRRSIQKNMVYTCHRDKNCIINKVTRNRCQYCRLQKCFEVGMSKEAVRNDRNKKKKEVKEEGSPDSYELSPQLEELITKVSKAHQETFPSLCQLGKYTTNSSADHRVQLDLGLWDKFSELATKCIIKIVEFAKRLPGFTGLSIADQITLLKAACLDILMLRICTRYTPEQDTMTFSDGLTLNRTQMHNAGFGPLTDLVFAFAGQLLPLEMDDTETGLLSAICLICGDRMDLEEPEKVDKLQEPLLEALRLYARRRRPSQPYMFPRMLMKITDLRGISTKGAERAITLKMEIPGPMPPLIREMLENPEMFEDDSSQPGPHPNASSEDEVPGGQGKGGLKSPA
# [2] = target: T2, Retinoic acid receptor beta (Homo sapiens, UniProt P10826); experiment: Inhibition of [3H]ATRA binding to baculovirus expressed Retinoic acid receptor RAR beta
# T2 sequence (P10826 whole entry): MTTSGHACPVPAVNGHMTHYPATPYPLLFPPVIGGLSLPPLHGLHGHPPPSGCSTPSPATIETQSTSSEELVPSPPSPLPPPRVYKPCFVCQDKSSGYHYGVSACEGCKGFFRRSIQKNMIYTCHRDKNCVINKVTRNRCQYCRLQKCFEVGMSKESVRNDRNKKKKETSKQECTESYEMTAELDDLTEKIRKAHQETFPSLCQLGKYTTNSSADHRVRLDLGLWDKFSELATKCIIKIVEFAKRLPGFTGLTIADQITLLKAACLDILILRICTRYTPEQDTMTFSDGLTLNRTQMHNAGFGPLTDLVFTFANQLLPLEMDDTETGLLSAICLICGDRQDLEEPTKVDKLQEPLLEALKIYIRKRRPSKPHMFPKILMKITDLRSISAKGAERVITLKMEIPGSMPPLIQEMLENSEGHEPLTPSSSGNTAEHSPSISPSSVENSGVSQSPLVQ
# [3] = target: T2, Retinoic acid receptor beta; experiment: Transcriptional activation in CV-1 cells expressing Retinoic acid receptor RAR beta; type: cell-based
# [4] = target: T3, Retinoic acid receptor alpha (Homo sapiens, UniProt P10276); experiment: Inhibition of [3H]ATRA binding to baculovirus expressed Retinoic acid receptor RAR alpha
# T3 sequence (P10276 whole entry): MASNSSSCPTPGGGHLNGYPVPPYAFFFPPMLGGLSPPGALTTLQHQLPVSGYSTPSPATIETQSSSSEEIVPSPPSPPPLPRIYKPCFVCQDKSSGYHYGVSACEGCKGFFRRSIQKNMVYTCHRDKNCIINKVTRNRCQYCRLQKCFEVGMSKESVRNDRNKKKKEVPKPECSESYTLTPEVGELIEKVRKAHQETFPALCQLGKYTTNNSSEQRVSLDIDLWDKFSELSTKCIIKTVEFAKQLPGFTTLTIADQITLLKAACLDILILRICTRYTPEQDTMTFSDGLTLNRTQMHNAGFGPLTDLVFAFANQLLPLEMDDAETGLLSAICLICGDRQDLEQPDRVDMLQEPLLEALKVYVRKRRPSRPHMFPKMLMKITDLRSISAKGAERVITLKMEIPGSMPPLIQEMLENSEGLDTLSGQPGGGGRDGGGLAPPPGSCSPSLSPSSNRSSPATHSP
# [5] = target: T4, Retinoic acid receptor beta (Homo sapiens) (UniProt P10826); experiment: Relative efficacy for Retinoic acid receptor beta compared to maximal retinoic acid response
# T4 sequence (whole entry): T2 sequence (P10826 whole entry)
Structure (SMILES),Kd [1] [nM],Kd [2] [nM],EC50 [3] [nM],Kd [4] [nM],Eff [5] [%]
CC1(C)CC=C(c2cccs2)c2cc(C(=O)Oc3ccc(C(=O)O)cc3)ccc21,1490,189,26,303,47
CC1(C)CC=C(c2cccs2)c2cc(C(=O)Nc3ccc(C(=O)O)cc3)ccc21,> 10000,996,115,94,61
CC1(C)CC=C(c2cccs2)c2cc(C#Cc3ccc(C(=O)O)cc3)ccc21,104,20,25,129,32
